From the supplement of paper PMC10307832

Tests used:
Test in all cases: relative viability (nuclei count vs DMSO), 5 days (fraction); higher = more cells survive
Avagacestat + OSI-027 = compound: NC(=O)[C@@H](CCC(F)(F)F)N(Cc1ccc(-c2ncon2)cc1F)S(=O)(=O)c1ccc(Cl)cc1 [Avagacestat] + COc1cccc2cc(-c3nc([C@H]4CC[C@H](C(=O)O)CC4)n4ncnc(N)c34)[nH]c12 [OSI-027] (partner 0.5 µM)
How it was run: (§1)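 Medians of duplicate plates are given as relative viability. That measure is the nuclei count in treated wells divided by the count in vehicle wells. Counts were taken on 4× images of lung cancer cell lines in 1536-well plates, 5 days after pin-tool dosing the day after seeding with one drug alone or a fixed anchor-drug dose plus five library-drug doses (not always all listed) in √10 steps.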

Avagacestat + Lapatinib = compound: NC(=O)[C@@H](CCC(F)(F)F)N(Cc1ccc(-c2ncon2)cc1F)S(=O)(=O)c1ccc(Cl)cc1 [Avagacestat] + CS(=O)(=O)CCNCc1ccc(-c2ccc3ncnc(Nc4ccc(OCc5cccc(F)c5)c(Cl)c4)c3c2)o1 [Lapatinib] (partner 2 µM)
How it was run: as §1

Avagacestat + Linsitinib = compound: NC(=O)[C@@H](CCC(F)(F)F)N(Cc1ccc(-c2ncon2)cc1F)S(=O)(=O)c1ccc(Cl)cc1 [Avagacestat] + C[C@]1(O)C[C@@H](c2nc(-c3ccc4ccc(-c5ccccc5)nc4c3)c3c(N)nccn32)C1 [Linsitinib] (partner 1 µM)
How it was run: as §1

Avagacestat + Alpelisib = compound: NC(=O)[C@@H](CCC(F)(F)F)N(Cc1ccc(-c2ncon2)cc1F)S(=O)(=O)c1ccc(Cl)cc1 [Avagacestat] + Cc1nc(NC(=O)N2CCC[C@H]2C(N)=O)sc1-c1ccnc(C(C)(C)C(F)(F)F)c1 [Alpelisib] (partner 2 µM)
How it was run: as §1

| Cell Line | relative viability (Avagacestat + OSI-027; first compound 0.08 µM) | relative viability (Avagacestat + OSI-027; first compound 0.253 µM) | relative viability (Avagacestat + OSI-027; first compound 0.8 µM) | relative viability (Avagacestat + OSI-027; first compound 2.53 µM) | relative viability (Avagacestat + OSI-027; first compound 8 µM) | relative viability (Avagacestat + Lapatinib; first compound 0.08 µM) | relative viability (Avagacestat + Lapatinib; first compound 0.253 µM) | relative viability (Avagacestat + Lapatinib; first compound 0.8 µM) | relative viability (Avagacestat + Lapatinib; first compound 2.53 µM) | relative viability (Avagacestat + Lapatinib; first compound 8 µM) | relative viability (Avagacestat + Linsitinib; first compound 0.08 µM) | relative viability (Avagacestat + Linsitinib; first compound 0.253 µM) | relative viability (Avagacestat + Linsitinib; first compound 0.8 µM) | relative viability (Avagacestat + Linsitinib; first compound 2.53 µM) | relative viability (Avagacestat + Linsitinib; first compound 8 µM) | relative viability (Avagacestat + Alpelisib; first compound 0.08 µM) | relative viability (Avagacestat + Alpelisib; first compound 0.253 µM) | relative viability (Avagacestat + Alpelisib; first compound 0.8 µM) | relative viability (Avagacestat + Alpelisib; first compound 2.53 µM) | relative viability (Avagacestat + Alpelisib; first compound 8 µM) |
| --- | --- | --- | --- | --- | --- | --- | --- | --- | --- | --- | --- | --- | --- | --- | --- | --- | --- | --- | --- | --- |
| 201T | 0.803 | 0.988 | 0.942 | 0.529 | 0.76 | 1.04 | 1.06 | 1.12 | 0.995 | 1.01 | 1.02 | 1.07 | 1.13 | 0.985 | 0.99 | 1.04 | 1.02 | 1.04 | 0.892 | 0.887 |
| A549 |  |  |  |  |  | 1.58 | 0.977 | 1.09 | 0.939 | 1.11 | 0.826 | 0.582 | 0.58 | 0.571 | 0.459 | 1.02 | 0.99 | 0.694 | 0.673 | 0.771 |
| A-427 | 0.543 | 0.474 | 0.421 | 0.403 | 0.445 | 1.03 | 1.28 | 1.12 | 1.07 | 1.06 | 1.11 | 1.24 | 1.16 | 1.15 | 1.22 | 1.14 | 1.2 | 1.1 | 1.07 | 1.14 |
| ABC-1 | 0.442 | 0.537 | 0.637 | 0.401 | 0.418 | 1.23 | 1.32 | 1.14 | 0.497 | 1.15 | 0.979 | 1.06 | 0.866 | 0.786 | 0.737 | 1.11 | 1.02 | 1.26 | 1.11 | 1.29 |
| BEN | 0.313 | 0.303 | 0.544 | 0.303 | 0.327 | 0.886 | 0.768 | 0.685 | 0.592 | 0.585 | 0.898 | 1.07 | 1.02 | 0.76 | 0.847 | 1.13 | 1.01 | 0.944 | 0.774 | 1.07 |
| CAL-12T | 1.01 | 0.873 | 0.957 | 0.841 | 0.607 | 0.836 | 0.859 | 0.833 | 0.747 | 0.699 | 0.94 | 0.865 | 0.931 | 0.768 | 0.693 | 1.39 | 1.74 | 1.27 | 1.17 | 1.24 |
| COR-L23 | 1.06 | 1.02 | 0.906 | 0.697 | 0.661 | 1.26 | 1.1 | 1.3 | 0.95 | 0.4 | 1.21 | 0.896 | 0.869 | 0.764 | 0.573 | 0.982 | 1.01 | 0.788 | 0.743 | 0.568 |
| COR-L 105 | 0.614 | 0.687 | 0.74 | 0.525 | 0.486 | 0.345 | 0.352 | 0.341 | 0.345 | 0.348 | 0.99 | 0.972 | 0.59 | 0.964 | 0.755 | 1.14 | 0.917 | 0.976 | 0.679 | 0.612 |
| Calu-6 |  |  |  |  |  | 1.41 | 1.41 | 1.26 | 1.47 | 1.03 | 1.05 | 1.04 | 1.07 | 1.03 | 0.784 | 1.18 | 1.16 | 1.12 | 1.12 | 0.993 |
| ChaGo-K-1 | 0.659 | 0.655 | 0.6 | 0.456 | 0.451 |  |  |  |  |  |  |  |  |  |  |  |  |  |  |  |
| EBC-1 |  |  |  |  |  | 0.212 | 0.231 | 0.246 | 0.23 | 0.202 | 0.88 | 0.914 | 1.09 | 0.995 | 0.649 | 0.691 | 0.78 | 0.743 | 0.738 | 0.555 |
| EKVX | 0.675 | 0.687 | 0.72 | 0.461 | 0.659 | 0.227 | 0.208 | 0.226 | 0.186 | 0.184 | 1.22 | 0.996 | 1.25 | 0.847 | 0.703 | 0.974 | 0.971 | 0.878 | 0.832 | 0.811 |
| EMC-BAC-2 | 0.364 | 0.445 | 0.429 | 0.396 | 0.364 | 0.978 | 0.956 | 1.02 | 0.954 | 0.841 | 0.882 | 0.953 | 0.84 | 0.738 | 0.784 | 0.897 | 0.81 | 0.748 | 0.653 | 0.717 |
| EPLC-272H | 0.274 | 0.259 | 0.326 | 0.226 | 0.28 | 1.1 | 0.963 | 0.883 | 1.15 | 0.997 | 1.4 | 1.2 | 1.4 | 1.32 | 0.933 | 1.05 | 1 | 1.02 | 1.09 | 0.865 |
| H3255 | 0.642 | 0.74 | 0.828 | 0.625 | 0.621 | 0.262 | 0.259 | 0.3 | 0.244 | 0.276 | 1.02 | 1.17 | 0.975 | 0.899 | 0.898 | 0.759 | 0.736 | 0.836 | 0.678 | 0.741 |
| HARA | 0.603 | 0.57 | 0.484 | 0.383 | 0.49 | 0.628 | 0.692 | 0.526 | 0.624 | 0.63 | 1.29 | 1.28 | 1.01 | 0.79 | 0.907 | 0.914 | 0.783 | 0.929 | 0.782 | 0.567 |
| HCC-15 | 0.757 | 0.881 | 0.776 | 0.644 | 0.717 | 0.95 | 1.04 | 1.12 | 0.879 | 0.778 | 0.985 | 0.998 | 0.874 | 0.936 | 0.755 | 1.01 | 1.05 | 0.93 | 0.861 | 0.802 |
